In brackets after ≈: the same amount, converted by molar mass. Some results are limits rather than exact numbers.

One series in a line: Solubility pH 7.4. The following applies: aqueous buffer, Table 1. Type of series: physicochemical.
Series [1] is described as follows: Microsomal stability (rat). It is filed as in vitro ADME. To be noted: rat microsomes, Table 1, read-out: Microsomal Stability (rat) T1/2.
The subject of series [2] is Asexual parasites of P. falciparum strain 3D7. In words: In vitro drug activity on asexual parasites (SYBR Green assay). It is filed as cell-based. To be noted: Plasmodium falciparum; Table 1; P. falciparum 3D7 asexual stage, 72 h; read-out: Asexual EC50. Summed up:
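3D7 asexual cultures at 0.5% parasitemia and 2% hematocrit were exposed to drug (DMSO <0.5%) for 72 h under standard culture conditions, in duplicate with no-drug and RBC-only controls. After freeze-thaw lysis, SYBR Green I lysis buffer was added for 30 min at room temperature; fluorescence was read at 490 nm excitation/520 nm emission.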

The next series in a line: PAMPA permeability. Type of series: in vitro ADME. To be noted: Table 1. (In general: The PAMPA barrier holds no transporters, so it reflects passive diffusion.)

In general, solubility refers to the concentration that dissolves in the medium under given conditions. High values mean much dissolved substance, low ones little dissolved substance. Usually EC50 stands for the concentration at which the effect is half-maximal. A word on the Papp: it is the rate of passage across a membrane or cell layer, normalised by area and donor concentration. In the case of `Cc1cc(N2CCOCC2)c(C#N)cc1-n1c(=N)n(C)c2cnc3ccc(-c4ccc(Cl)cc4)cc3c21` [Compound 23, 5-(8-(4-chlorophenyl)-2-imino-3-methyl-2,3-dihydro-1H-imidazo[4,5-c]quinolin-1-yl)-4-methyl-2-morpholinobenzonitrile], the solubility in “Solubility pH 7.4” is < 1 µg/mL. The half-life in series [1] is > 30 min. For the same compound, the EC50 in series [2] came to 63.9 nM. Moreover, in “PAMPA permeability”, the Papp stood at 340 ×10⁻⁶ cm/s.

With `Cc1ccc(C#N)cc1-n1c(=N)n(C)c2cnc3ccc(-c4cccc(CN(C)C)c4)cc3c21` [Compound 24, 3-(8-(3-((dimethylamino)methyl)phenyl)-2-imino-3-methyl-2,3-dihydro-1H-imidazo[4,5-c]quinolin-1-yl)-4-methylbenzonitrile], in the series “Solubility pH 7.4”, the solubility is > 44 µg/mL. In series [1], the half-life was > 30 min. In addition, the EC50 in series [2] came to 980 nM. For the same compound, in the series “PAMPA permeability”, the Papp came to 405 ×10⁻⁶ cm/s.

For the compound `Cc1ccc(C#N)cc1-n1c(=N)n(C)c2cnc3ccc(-c4cccc(C#N)c4)cc3c21` [Compound 25, 3-(8-(3-cyanophenyl)-2-imino-3-methyl-2,3-dihydro-1H-imidazo[4,5-c]quinolin-1-yl)-4-methylbenzonitrile], the solubility in the series “Solubility pH 7.4” is > 41 µg/mL. Further, the half-life in series [1] is > 30 min. Further, in series [2], the EC50 was 118 nM. The compound further came in with a Papp in “PAMPA permeability” of 1430 ×10⁻⁶ cm/s.

On to `Cn1c(=N)n(-c2cccc(C(F)(F)F)c2)c2c3cc(-c4ccc(Cl)cc4)ccc3ncc21` [Compound 26, 8-(4-chlorophenyl)-3-methyl-1-(3-(trifluoromethyl)phenyl)-1,3-dihydro-2H-imidazo[4,5-c]quinolin-2-imine], for which the solubility in the series “Solubility pH 7.4” is < 1 µg/mL. Moreover, in series [1], the half-life is > 30 min. Also, in series [2], the EC50 came out at 529 nM. In “PAMPA permeability”, this compound yielded a Papp of 1670 ×10⁻⁶ cm/s.

As for `Cc1ccc(C(F)(F)F)cc1-n1c(=N)n(C)c2cnc3ccc(-c4ccc(Cl)cc4)cc3c21` [Compound 27, 8-(4-chlorophenyl)-3-methyl-1-(2-methyl-5-(trifluoromethyl)phenyl)-1,3-dihydro-2H-imidazo[4,5-c]quinolin-2-imine], in the series “Solubility pH 7.4”, the solubility is < 1 µg/mL. For the same compound, the half-life in series [1] was > 30 min. Moreover, the EC50 in series [2] is 138 nM. The compound also came in with a Papp in “PAMPA permeability” of 1610 ×10⁻⁶ cm/s.

As for `Cn1c(=N)n(-c2cccc(Cl)c2)c2c3cc(-c4ccc(Cl)cc4)ccc3ncc21` [Compound 28, 1-(3-chlorophenyl)-8-(4-chlorophenyl)-3-methyl-1,3-dihydro-2H-imidazo[4,5-c]quinolin-2-imine], the solubility in “Solubility pH 7.4” was < 1 µg/mL. The half-life in series [1] was > 30 min. Moreover, in series [2], the EC50 is 186 nM. The Papp in “PAMPA permeability” was 226 ×10⁻⁶ cm/s.

Consider `Cc1ccc(Cl)cc1-n1c(=N)n(C)c2cnc3ccc(-c4ccc(Cl)cc4)cc3c21` [Compound 29, 1-(5-chloro-2-methylphenyl)-8-(4-chlorophenyl)-3-methyl-1,3-dihydro-2H-imdazo[4,5-c]quinolin-2-imine], for which the solubility in “Solubility pH 7.4” is < 1 µg/mL. Also, in series [1], the half-life is > 30 min. Besides, the EC50 in series [2] came out at 136 nM. The same compound displayed an apparent permeability coefficient (Papp) in “PAMPA permeability” of 1680 ×10⁻⁶ cm/s.

`Cc1ccc(C#N)cc1-n1c(=N)n(C)c2cnc3ccc(-c4ccc(Cl)c(C#N)c4)cc3c21` [Compound 30, 2-chloro-5-(1-(5-cyano-2-methylphenyl)-2-imino-3-methyl-2,3-dihydro-1H-imidazo[4,5-c]quinolin-8-yl)benzonitrile]: the solubility in “Solubility pH 7.4” turned out to be 7.3 µg/mL (≈ 16.3 µM). Moreover, the half-life in series [1] is > 30 min. Besides, the EC50 in series [2] worked out at 60.3 nM. The same compound yielded a Papp in “PAMPA permeability” of 1210 ×10⁻⁶ cm/s.

Turning to `COc1cc(-c2ccc3ncc4c(c3c2)n(-c2cc(C#N)ccc2C)c(=N)n4C)ccc1Cl` [Compound 31, 3-(8-(4-chloro-3-methoxyphenyl)-2-imino-3-methyl-2,3-dihydro-1H-imidazo[4,5-c]quinolin-1-yl)-4-methylbenzonitrile], in the series “Solubility pH 7.4”, the solubility was < 1 µg/mL. In addition, the half-life in series [1] is > 30 min. Besides, the EC50 in series [2] is 27.2 nM. This compound also displayed a Papp in “PAMPA permeability” of 433 ×10⁻⁶ cm/s.

`COc1cccc(-c2ccc3ncc4c(c3c2)n(-c2cc(C#N)ccc2C)c(=N)n4C)c1` [Compound 32, 3-(2-imino-8-(3-methoxyphenyl)-3-methyl-2,3-dihydro-H-imidazo[4,5-c]quinolin-1-yl)-4-methylbenzonitrile]: in the series “Solubility pH 7.4”, the solubility is > 42 µg/mL. For the same compound, in series [1], the half-life was > 30 min. Further, the EC50 in series [2] was found to be 420 nM. In addition, in the series “PAMPA permeability”, the apparent permeability coefficient (Papp) worked out at 678 ×10⁻⁶ cm/s.

`Cc1ccc(C#N)cc1-n1c(=N)n(C)c2cnc3ccc(-c4cccc(Cl)c4)cc3c21` [Compound 33, 3-(8-(3-chlorophenyl)-2-imino-3-methyl-2,3-dihydro-1H-imidazo[4,5-c]quinolin-1-yl)-4-methylbenzonitrile] showed a solubility in “Solubility pH 7.4” of 14.5 µg/mL (≈ 34.2 µM). The half-life in series [1] was > 30 min. In addition, the EC50 in series [2] came out at 297 nM. The Papp in “PAMPA permeability” is 1820 ×10⁻⁶ cm/s.

In the case of `Cc1ccc(C#N)cc1-n1c(=N)n(C)c2cnc3ccc(-c4cccc(F)c4)cc3c21` [Compound 34, 3-(8-(3-fluorophenyl)-2-imino-3-methyl-2,3-dihydro-1H-imidazo[4,5-c]quinolin-1-yl)-4-methylbenzonitrile], the solubility in “Solubility pH 7.4” was > 40 µg/mL. The half-life in series [1] is > 30 min. Further, in series [2], the EC50 came to 47.3 nM. In addition, the Papp in “PAMPA permeability” stood at 852 ×10⁻⁶ cm/s.

Take `Cc1ccc(C#N)cc1-n1c(=N)n(C)c2cnc3ccc(-c4ccccc4)cc3c21` [Compound 35, 3-(2-imino-3-methyl-8-phenyl-2,3-dihydro-1H-imidazo[4,5-c]quinolin-1-yl)-4-methylbenzonitrile]: the solubility in the series “Solubility pH 7.4” is > 39 µg/mL. Also, the half-life in series [1] was > 30 min. Besides, the EC50 in series [2] was 34 nM. Besides, the Papp in “PAMPA permeability” came to 716 ×10⁻⁶ cm/s.

For the compound `Cc1cccc(-c2ccc3ncc4c(c3c2)n(-c2cc(C#N)ccc2C)c(=N)n4C)c1` [Compound 36, 3-(2-imino-3-methyl-8-(m-tolyl)-2,3-dihydro-1H-imidazo[4,5-c]quinolin-1-yl)-4-methylbenzonitrile], the solubility in the series “Solubility pH 7.4” was > 40 µg/mL. In addition, in series [1], the half-life worked out at 27 min. Moreover, in series [2], the EC50 was 158 nM. Also, the Papp in “PAMPA permeability” came out at 1150 ×10⁻⁶ cm/s.

In the case of `Cc1ccc(C#N)cc1-n1c(=N)n(C)c2cnc3ccc(-c4cccc(O)c4)cc3c21` [Compound 37, 3-(8-(3-hydroxyphenyl)-2-imino-3-methyl-2,3-dihydro-1H-imidazo[4,5-c]quinolin-1-yl)-4-methylbenzonitrile], the solubility in “Solubility pH 7.4” is > 40 µg/mL. Moreover, the half-life in series [1] was > 30 min. Moreover, the EC50 in series [2] worked out at 46.1 nM. The same compound gave a Papp in the series “PAMPA permeability” of 10.3 ×10⁻⁶ cm/s.

For the compound `Cc1ccc(C#N)cc1-n1c(=N)n(C)c2cnc3ccc(-c4cccc(N)c4)cc3c21` [Compound 38, 3-(8-(3-aminophenyl)-2-imino-3-methyl-2,3-dihydro-1H-imidazo[4,5-c]quinolin-1-yl)-4-methylbenzonitrile], in “Solubility pH 7.4”, the solubility is > 40 µg/mL. In addition, the half-life in series [1] was > 30 min. For the same compound, in series [2], the EC50 came out at 83 nM. Besides, in the series “PAMPA permeability”, the Papp is 435 ×10⁻⁶ cm/s.

Take `Cc1ccc(C#N)cc1-n1c(=N)n(C)c2cnc3ccc(-c4ccc(F)c(O)c4)cc3c21` [Compound 39, 3-(8-(4-fluoro-3-hydroxyphenyl)-2-imino-3-methyl-2,3-dihydro-1H-imidazo[4,5-c]quinolin-1-yl)-4-methylbenzonitrile]: the solubility in “Solubility pH 7.4” is > 42 µg/mL. Moreover, the half-life in series [1] was > 30 min. The EC50 in series [2] was determined as 54.5 nM. The compound also registered a Papp in “PAMPA permeability” of 147 ×10⁻⁶ cm/s.

The values are drawn from patent US20210188843A1, “QUINOLINE COMPOUNDS AND THEIR PREPARATION AND USE AS ANTIMALARIAL AGENTS” (The United States of America,as represented by the …, priority 2018, published 2021).
